Measurements published in patent publication US8956868B2, “Induced pluripotent stem cells produced with a connexin inhibitor and a TGF-β signaling inhibitor” (LSIP, LLC, priority 2010, dated 2015).

Test system: cardiomyocytes derived from neonatal mouse ventricles
Assay: Reprogramming of cardiomyocytes into iPS cells (selective culture in mouse ES medium)
Assay type: cell-based
Settings: ES medium containing both 10 μM SB-431542 and 100 nM siRNA Cx43 (combination); after about two weeks; cardiomyocytes seeded at 2×10^5 cells
Description: Two-day-old neonatal C57BL/6 or C57BL/6-Tg (CAG-EGFP) mouse hearts including ventricles were minced into approximately 2-mm cubes with dissecting scissors by a conventional method. They were treated with 0.2% collagenase (type II; Worthington Biochemical Corp. U.S.; dissolved in PBS) to dissociate cardiomyocytes. The dissociated cardiomyocytes were centrifuged, and incubated for 45 minutes in DMEM containing 10% FBS at 37° C. with 5% CO2. After the incubation, the supernatant was further incubated under the same conditions. This process was repeated four times. Thus, fibroblasts were removed, and the cardiomyocytes were isolated,
The cardiomyocytes were seeded at 2×10^5 cells in a 6-cm dish, and cultured in the above DMEM medium. After culturing for 1 week, the medium used for culturing the cardiomyocytes was switched from the above DMEM medium to mouse ES media containing 15% FBS and also containing either a TGF-β receptor inhibitor SB-431542 (10 μM; Tocris, USA), siRNA Cx43 (100 nM), or both compounds, to select the reprogrammed cells. […]

Row | Compound | iPS cell colonies obtained
1 | NC(=O)c1ccc(-c2nc(-c3ccc4c(c3)OCO4)c(-c3ccccn3)[nH]2)cc1 [SB-431542] | Two
2 | siRNA Cx43: mouse Cx43 siRNA; sense 5′-CAAUUCCUCCUGCCGCAATT-3′, antisense 5′-UUGCGGCAGGAGGAAUUGTT-3′ (sense CAAUUCCUCCUGCCGCAATT; antisense UUGCGGCAGGAGGAAUUGTT; chemistry not given here) | Two
